Common to all, as to assay type: cell-based
For assay [1], the system named is Escherichia Coli MC 4100. Description: MIC broth microdilution, E. coli MC 4100 (wild type). The settings on record: E. coli MC 4100. A general note: Broth dilution looks for growth in wells or tubes with falling amounts of substance.
In assay [2] the test system is Staphylococcus aureus 8325-4. Description: MIC broth microdilution, S. aureus 8325-4 (wild type). The settings on record: S. aureus 8325-4.
Assay [3] relates to Pseudomonas aeruginosa PAM 1154. The assay can be described thus: MIC broth microdilution, P. aeruginosa PAM 1154 (OprM::Hg). The settings on record: P. aeruginosa PAM 1154 OprM::Hg.
The test system of assay [4] is Staphylococcus aureus ATCC 29213. Description: MIC broth microdilution, S. aureus ATCC 29213 (wild type). The settings on record: S. aureus ATCC 29213.
Assay [5] has as its system Escherichia Coli MC 4100 AcrAB. Description: MIC broth microdilution, E. coli MC 4100 AcrAB (ΔAcrAB). The conditions noted are these: E. coli AcrAB.
Assay [6] has as its system Pseudomonas aeruginosa PAM 1323. The assay can be described thus: MIC broth microdilution, P. aeruginosa PAM 1323 (medium level UPA resistance).
Assay [7] concerns Pseudomonas aeruginosa PAM 1020. The assay can be described thus: MIC broth microdilution, P. aeruginosa PAM 1020 (wild type). The settings on record: P. aeruginosa PAM 1020.
For assay [8], the system named is Escherichia Coli MC 4100 AcrAB UPA3r. Description: MIC broth microdilution, E. coli MC 4100 AcrAB UPA3r (ΔAcrAB, UPA resistant). The conditions noted are these: E. coli AcrAB UPA3^r.
In assay [9] the test system is Pasteurella multocida pm002. The assay can be described thus: MIC broth microdilution, P. multocida pm002 (wild type).
The test system of assay [10] is Pseudomonas aeruginosa PAM 1135. The assay can be described thus: MIC broth microdilution, P. aeruginosa PAM 1135 (high level UPA resistance). The conditions noted are these: P. aeruginosa PAM 1135 UPA1^r.

In brackets after ≈: the same amount, converted by molar mass.

`CNC(C)C(NC(=O)C(Cc1ccc(F)cc1)NC(=O)NC(Cc1ccc(O)cc1)C(=O)O)C(=O)NCC1CC(O)C(n2ccc(=O)[nH]c2=O)O1` [Compound 127, 1-[5′-[(2S,3S)-N^2-[N-[[(1S)-1-carboxy-4-hydroxyphenethyl)carbamoyl]-L-4-fluorophenylalanyl]-N^3-methyl-2,3-diaminobutyramidol-3′,5′-dideoxy-α-L-arabinofuranosyl]uracil]: the “MIC (μg/ml) Broth microdilution” value is above 512 µg/mL in assay [1]; above 512 µg/mL in [2]; 512 µg/mL (≈ 717 µM) in [3]; above 512 µg/mL in assay [4]; 4 µg/mL (≈ 5.6 µM) in [5]; above 512 µg/mL in assay [6]. Also, the “MIC (μg/ml) Broth microdilution” value is above 512 µg/mL in assay [7], 32 µg/mL (≈ 44.8 µM) in assay [8], above 512 µg/mL in [9] and above 512 µg/mL in assay [10].
As for `CC(C(NC(=O)C(Cc1ccc(F)cc1)NC(=O)NC(Cc1ccc(O)cc1)C(=O)O)C(=O)NCC1CC(O)C(n2ccc(=O)[nH]c2=O)O1)N(C)C(=O)CN` [Compound 129, 1-[5′-[(2S,3S)-N^2-[N-[[(1S)-1-Carboxy-4-hydroxyphenethyl)-L-4-fluorophenylalanyl]-N^3-glycyl-N^3-methyl-2,3-diaminobutyramido]-3′,5′-dideoxy-α-L-arabinofuranosyl]uracil], the “MIC (μg/ml) Broth microdilution” value in assay [1] is 8 µg/mL (≈ 10.4 µM); in assay [2] it was 512 µg/mL (≈ 664 µM); in [3], 8 µg/mL (≈ 10.4 µM); in assay [4], above 512 µg/mL; in assay [5] it was below 1 µg/mL; in assay [6], above 512 µg/mL. In addition, the “MIC (μg/ml) Broth microdilution” value in [7] is 32 µg/mL (≈ 41.5 µM); in [8] it was 2 µg/mL (≈ 2.59 µM); in assay [9], 256 µg/mL (≈ 332 µM); in [10], above 512 µg/mL.
Consider `CC(C(NC(=O)C(Cc1ccc(F)cc1)NC(=O)NC(Cc1ccc(O)cc1)C(=O)O)C(=O)NCC1CC(O)C(n2ccc(=O)[nH]c2=O)O1)N(C)C(=O)c1cccc(N)c1` [Compound 131, 1-[5′-[(2S,3S)-N^3-3-Aminobenzoyl-N^2-[N-[[(1S)-1-carboxy-4-hydroxyphenethyl]carbamoyl]-L-4-fluorophenylalanyl]-N^3-methyl-2,3-diaminobutyramido]-3′,5′-dideoxy-α-Larabinofuranosyl]uracil], for which the “MIC (μg/ml) Broth microdilution” value is above 512 µg/mL in assay [1]; above 512 µg/mL in assay [2]; 512 µg/mL (≈ 615 µM) in assay [3]; 512 µg/mL (≈ 615 µM) in [4]; 16 µg/mL (≈ 19.2 µM) in assay [5]; above 512 µg/mL in [6]. The “MIC (μg/ml) Broth microdilution” value in assay [7] is 512 µg/mL (≈ 615 µM); in assay [8] it was 512 µg/mL (≈ 615 µM); in assay [9], above 512 µg/mL; in assay [10] it was above 512 µg/mL.
In the case of `CC(N)C(=O)N(C)C(C)C(NC(=O)C(Cc1cscn1)NC(=O)NC(Cc1ccc(O)cc1)C(=O)O)C(=O)NCC1CC(O)C(n2ccc(=O)[nH]c2=O)O1` [Compound 132, 1-[5′-[(2S,3S)-N^3-L-Alanyl-N^2-[N-[[(1S)-1-carboxy-4-hydroxyphenethyl]carbamoyl]-L-thiazolylalanyl]-N^3-methyl-2,3-diaminobutyramido]-3′,5′-dideoxy-α-L-arabinofuranosyl]uracil], the “MIC (μg/ml) Broth microdilution” value was 256 µg/mL (≈ 331 µM) in [1]; above 512 µg/mL in [2]; 32 µg/mL (≈ 41.4 µM) in assay [3]; above 512 µg/mL in assay [4]; 8 µg/mL (≈ 10.3 µM) in assay [5]; above 512 µg/mL in [6]. In addition, the “MIC (μg/ml) Broth microdilution” value is 128 µg/mL (≈ 165 µM) in [7], 32 µg/mL (≈ 41.4 µM) in [8], above 512 µg/mL in assay [9] and above 512 µg/mL in [10].
As for `CC(N)C(=O)N(C)C(C)C(NC(=O)C(CCc1ccccc1)NC(=O)NC(Cc1ccc(O)cc1)C(=O)O)C(=O)NCC1CC(O)C(n2ccc(=O)[nH]c2=O)O1` [Compound 137, 1-[5′-[(2S,3S)-N^3-L-Alanyl-N^2-[N-[[(1S)-1-carboxy-4-hydroxyphenethyl]carbamoyl]-L-homophenylalanyl]-N^3-methyl-2,3-diaminobutyramido]-3′,5′-dideoxy-α-L-arabinofuranosyl]uracil], the “MIC (μg/ml) Broth microdilution” value in assay [1] was 512 µg/mL (≈ 656 µM); in assay [2], above 512 µg/mL; in assay [3] it was 128 µg/mL (≈ 164 µM); in assay [4], above 512 µg/mL; in assay [5], 16 µg/mL (≈ 20.5 µM); in assay [6], above 512 µg/mL. For the same compound, the “MIC (μg/ml) Broth microdilution” value in [7] was 64 µg/mL (≈ 82 µM); in assay [8], 256 µg/mL (≈ 328 µM); in assay [9], above 512 µg/mL; in [10], above 512 µg/mL.
`CC(N)C(=O)N(C)C(C)C(NC(=O)C(CCc1ccccc1)NC(=O)NC(Cc1c[nH]c2ccccc12)C(=O)O)C(=O)NCC1CC(O)C(n2ccc(=O)[nH]c2=O)O1` [Compound 138, 1-[5′-[(2S,3S)-N^3-L-Alanyl-N^2-[N-[[(1S)-1-carboxy-2-indol-3-ylethyl]carbamoyl]-L-homophenylalanyl]-N^3-methyl-2,3-diaminobutyramido]-3′,5′-dideoxy-α-L-arabinofuranosyl]uracil]: the “MIC (μg/ml) Broth microdilution” value is 512 µg/mL (≈ 637 µM) in assay [1]; above 512 µg/mL in [2]; 8 µg/mL (≈ 9.95 µM) in assay [3]; above 512 µg/mL in [4]; 2 µg/mL (≈ 2.49 µM) in [5]; above 512 µg/mL in assay [6]. The “MIC (μg/ml) Broth microdilution” value in assay [7] was 32 µg/mL (≈ 39.8 µM); in assay [8] it was 256 µg/mL (≈ 318 µM); in [9], above 512 µg/mL; in assay [10], above 512 µg/mL.
`C[C@H](N)C(=O)N(C)[C@@H](C)[C@H](NC(=O)[C@H](Cc1ccccc1F)NC(=O)N[C@@H](Cc1c[nH]c2ccccc12)C(=O)O)C(=O)NC[C@H]1C[C@@H](O)[C@H](n2ccc(=O)[nH]c2=O)O1` [Compound 139, 1-[5′-[(2S,3S)-N^3-L-Alanyl-N^2-[N-[[(1S)-1-carboxy-2-indol-3-ylethyl]carbamoyl]-L-2-fluorophenylalanyl]-N^3-methyl-2,3-diaminobutyramido]-3′,5′-dideoxy-α-L-arabinofuranosyl]uracil]: the “MIC (μg/ml) Broth microdilution” value in assay [1] is above 512 µg/mL; in assay [2] it was 256 µg/mL (≈ 317 µM); in [3], 8 µg/mL (≈ 9.9 µM); in assay [4], 256 µg/mL (≈ 317 µM); in [5], 2 µg/mL (≈ 2.48 µM); in assay [6], 512 µg/mL (≈ 634 µM). The “MIC (μg/ml) Broth microdilution” value is 64 µg/mL (≈ 79.2 µM) in [7], 64 µg/mL (≈ 79.2 µM) in assay [8], 256 µg/mL (≈ 317 µM) in [9] and above 512 µg/mL in [10].
Consider `C[C@H](N)C(=O)N(C)[C@@H](C)[C@H](NC(=O)[C@H](Cc1ccccc1F)NC(=O)N[C@@H](Cc1ccc(O)cc1)C(=O)O)C(=O)NC[C@H]1C[C@@H](O)[C@H](n2ccc(=O)[nH]c2=O)O1` [Compound 140, 1-[5′-[(2S,3S)-N^3-L-Alanyl-N^2-[N-[[(1S)-1-carboxy-4-hydroxyphenethyl]carbamoyl]-L-2-fluorophenylalanyl]-N^3-methyl-2,3-diaminobutyramido]-3′,5′-dideoxy-α-L-arabinofuranosyl]uracil], for which the “MIC (μg/ml) Broth microdilution” value in [1] was 64 µg/mL (≈ 81.5 µM); in [2] it was 512 µg/mL (≈ 652 µM); in assay [3] it was 4 µg/mL (≈ 5.1 µM); in assay [4] it was 512 µg/mL (≈ 652 µM); in [5] it was below 1 µg/mL; in [6], 512 µg/mL (≈ 652 µM). In addition, the “MIC (μg/ml) Broth microdilution” value in assay [7] was 64 µg/mL (≈ 81.5 µM); in [8] it was 8 µg/mL (≈ 10.2 µM); in [9], above 512 µg/mL; in [10], above 512 µg/mL.
Take `C[C@H](N)C(=O)N(C)[C@@H](C)[C@H](NC(=O)[C@H](Cc1ccc(F)c(F)c1)NC(=O)N[C@@H](Cc1c[nH]c2ccccc12)C(=O)O)C(=O)NC[C@H]1C[C@@H](O)[C@H](n2ccc(=O)[nH]c2=O)O1` [Compound 143, 1-[5′-[(2S,3S)-N^3-L-Alanyl-N^2-[N-[[(1S)-1-carboxy-2-indol-3-ylethyl]carbamoyl]-L-(3,4)-difluorophenylalanyl]-N^3-methyl-2,3-diaminobutyramido]-3′,5′-dideoxy-α-L-arabinofuranosyl]uracil]: the “MIC (μg/ml) Broth microdilution” value is 256 µg/mL (≈ 310 µM) in [1]; 256 µg/mL (≈ 310 µM) in assay [2]; 16 µg/mL (≈ 19.4 µM) in assay [3]; 512 µg/mL (≈ 620 µM) in assay [4]; below 1 µg/mL in assay [5]; above 512 µg/mL in assay [6]. Moreover, the “MIC (μg/ml) Broth microdilution” value was 128 µg/mL (≈ 155 µM) in [7], 16 µg/mL (≈ 19.4 µM) in [8], 128 µg/mL (≈ 155 µM) in [9] and above 512 µg/mL in assay [10].

(Values after patent US6482921B1, “Uridyl peptide antibiotic (UPA) derivatives, their synthesis and use” (Essential Therapeutics, Inc., priority 1999, dated 2002).)
